Laboratory results as given in the supplement of paper PMC10307832.

What was measured:
Assay in all cases: relative viability (nuclei count vs DMSO), 5 days (fraction); higher = more cells survive
[1] = compound: CC(C)C[C@H](NC(=O)[C@H](Cc1ccccc1)NC(=O)c1cnccn1)B(O)O [Bortezomib] + C[C@]1(O)C[C@@H](c2nc(-c3ccc4ccc(-c5ccccc5)nc4c3)c3c(N)nccn32)C1 [Linsitinib] (partner 1 µM)
Outline: (§1)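 Lung cancer cell lines were seeded in 1536-well plates and dosed by pin tool the next day, with either a single drug or a fixed anchor-drug dose combined with five library-drug doses (not always all listed) spaced in √10 steps. Five days later, one step fixed the cells and stained their nuclei (final 0.05% Triton X-100, 1% formaldehyde, 1 ug/ml Hoechst), and nuclei were counted on 4× images. Relative viability is the nuclei count in treated wells divided by the count in vehicle wells, and each value is the median of duplicate plates.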

[2] = compound: CC(C)C[C@H](NC(=O)[C@H](Cc1ccccc1)NC(=O)c1cnccn1)B(O)O [Bortezomib] + O=C(c1cc(Cc2n[nH]c(=O)c3ccccc23)ccc1F)N1CCN(C(=O)C2CC2)CC1 [Olaparib] (partner 8 µM)
Outline: as §1

[3] = compound: COC1=CC(c2cc3ccccc3[nH]2)=N/C1=C\c1[nH]c(C)cc1C [Obatoclax] + C[C@]1(O)C[C@@H](c2nc(-c3ccc4ccc(-c5ccccc5)nc4c3)c3c(N)nccn32)C1 [Linsitinib] (partner 1 µM)
Outline: as §1

[4] = compound: CC1=CC(=NN1)NC2=CC(=NC(=N2)/C=C/C3=CC=CC=C3)N4CCN(CC4)C + C[C@]1(O)C[C@@H](c2nc(-c3ccc4ccc(-c5ccccc5)nc4c3)c3c(N)nccn32)C1 [Linsitinib] (partner 1 µM)
Outline: as §1

Row | Cell Line | relative viability ([1]; first compound 0.0002 µM) | relative viability ([1]; first compound 0.000632 µM) | relative viability ([1]; first compound 0.002 µM) | relative viability ([1]; first compound 0.006325 µM) | relative viability ([1]; first compound 0.02 µM) | relative viability ([2]; first compound 0.0002 µM) | relative viability ([2]; first compound 0.000632 µM) | relative viability ([2]; first compound 0.002 µM) | relative viability ([2]; first compound 0.006325 µM) | relative viability ([2]; first compound 0.02 µM) | relative viability ([3]; first compound 0.01 µM) | relative viability ([3]; first compound 0.03162 µM) | relative viability ([3]; first compound 0.1 µM) | relative viability ([3]; first compound 0.3162 µM) | relative viability ([3]; first compound 1 µM) | relative viability ([4]; first compound 0.08 µM) | relative viability ([4]; first compound 0.253 µM) | relative viability ([4]; first compound 0.8 µM) | relative viability ([4]; first compound 2.53 µM) | relative viability ([4]; first compound 8 µM)
1 | NCI-H1355 | 0.85 | 0.777 | 0.615 | 0.837 | 0.124 | 0.733 | 0.725 | 0.666 | 0.118 | 0.107 | 0.867 | 0.87 | 0.802 | 0.739 | 0.75 | 0.797 | 0.843 | 0.779 | 0.62 | 0.41
2 | COR-L23 | 0.994 | 0.828 | 0.495 | 0.0469 | 0.0499 | 0.37 | 0.375 | 0.203 | 0.0613 | 0.0717 | 0.848 | 1 | 0.767 | 0.29 | 0.173 | 0.868 | 0.809 | 0.839 | 0.173 | 0.0756
3 | A549 | 0.667 | 0.538 | 0.423 | 0.122 | 0.0542 | 0.355 | 0.401 | 0.49 | 0.291 | 0.189 | 0.601 | 0.55 | 0.621 | 0.635 | 0.626 | 0.538 | 0.689 | 0.481 | 0.275 | 0.0279
4 | NCI-H2023 | 0.68 | 0.723 | 0.711 | 0.102 | 0.0845 | 0.427 | 0.473 | 0.485 | 0.0778 | 0.0633 | 0.624 | 0.648 | 0.635 | 0.608 | 0.279 | 0.63 | 0.725 | 0.581 | 0.382 | 0.0796
5 | A-427 | 1.06 | 1.03 | 1.1 | 1.16 | 0.285 | 0.711 | 0.727 | 0.759 | 0.188 | 0.151 | 1.07 | 0.775 | 1.11 | 1.15 | 1.13 | 1.2 | 1.16 | 1.09 | 0.87 | 0.305
6 | UMC-11 | 0.937 | 0.974 | 0.936 | 0.375 | 0.176 | 0.441 | 0.398 | 0.348 | 0.189 | 0.133 | 1.04 | 0.875 | 0.981 | 0.81 | 0.885 | 0.937 | 1.03 | 0.934 | 0.508 | 0.133
7 | NCI-H596 | 0.894 | 0.813 | 1.09 | 0.233 | 0.18 | 0.723 | 0.709 | 0.445 | 0.186 | 0.187 | 1.07 | 0.945 | 0.809 | 0.66 | 0.731 | 0.941 | 1.18 | 1.16 | 0.757 | 0.409
8 | LU99A | 0.55 |  | 0.599 | 0.337 | 0.149 | 0.238 | 0.26 | 0.242 | 0.154 | 0.122 | 0.486 | 0.437 | 0.498 | 0.307 | 0.475 | 0.489 | 0.485 | 0.466 | 0.228 | 0.138
9 | IA-LM | 0.907 | 0.682 | 0.577 | 0.161 | 0.0151 | 0.765 | 0.824 | 0.791 | 0.0665 | 0.0149 | 0.457 | 0.505 | 0.5 | 0.465 | 0.0667 | 0.561 | 0.61 | 0.878 | 0.752 | 0.729
10 | NCI-H2009 | 1.12 | 1.22 | 1.18 | 0.0695 | 0.058 | 0.654 | 0.661 | 0.693 | 0.222 | 0.049 | 1.12 | 1.2 | 1.19 | 1.02 | 0.262 | 1.08 | 1.16 | 1.21 | 1.05 | 0.155
